Experimental data reported in PubChem BioAssay (NCI).
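Assay format: 96-well plates, 48-hour exposure. The concentration for full growth arrest is given as TGI.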

Key:
Assay in all cases: inhibition of tumour cell growth, NCI panel, 48 h
OVCAR-8 ovarian = tested on: OVCAR-8 ovarian
HT29 colon = tested on: HT29 colon
MDA-MB-435 = tested on: MDA-MB-435
SK-MEL-2 melanoma = tested on: SK-MEL-2 melanoma
UACC-62 melanoma = tested on: UACC-62 melanoma
HOP-62 NSCLC = tested on: HOP-62 NSCLC
NCI-H226 lung = tested on: NCI-H226 lung
ACHN renal = tested on: ACHN renal
M14 melanoma = tested on: M14 melanoma
DU-145 prostate = tested on: DU-145 prostate
EKVX NSCLC = tested on: EKVX NSCLC
CAKI-1 renal = tested on: CAKI-1 renal
UACC-257 melanoma = tested on: UACC-257 melanoma
SF-539 CNS = tested on: SF-539 CNS
NCI-H23 lung = tested on: NCI-H23 lung
KM12 colon = tested on: KM12 colon
MALME-3M melanoma = tested on: MALME-3M melanoma
SW-620 colon = tested on: SW-620 colon
SF-295 CNS = tested on: SF-295 CNS
HCT-116 colon = tested on: HCT-116 colon
LOX IMVI melanoma = tested on: LOX IMVI melanoma
COLO 205 colon = tested on: COLO 205 colon
PC-3 prostate = tested on: PC-3 prostate
RPMI-8226 leukemia = tested on: RPMI-8226 leukemia
SF-268 CNS = tested on: SF-268 CNS
T-47D breast = tested on: T-47D breast
SK-MEL-28 melanoma = tested on: SK-MEL-28 melanoma
HCC-2998 colon = tested on: HCC-2998 colon
MOLT-4 leukemia = tested on: MOLT-4 leukemia
HL-60(TB) leukemia = tested on: HL-60(TB) leukemia
U251 CNS = tested on: U251 CNS
MDA-N = tested on: MDA-N
MDA-MB-231 breast = tested on: MDA-MB-231 breast
OVCAR-3 ovarian = tested on: OVCAR-3 ovarian
SK-OV-3 ovarian = tested on: SK-OV-3 ovarian
786-0 renal = tested on: 786-0 renal
A549 NSCLC = tested on: A549 NSCLC
RXF 393 renal = tested on: RXF 393 renal
NCI-H460 lung = tested on: NCI-H460 lung
HS 578T breast = tested on: HS 578T breast
CCRF-CEM leukemia = tested on: CCRF-CEM leukemia
HCT-15 colon = tested on: HCT-15 colon
TK-10 renal = tested on: TK-10 renal
SN12C renal = tested on: SN12C renal
SNB-75 CNS = tested on: SNB-75 CNS
UO-31 renal = tested on: UO-31 renal
BT-549 breast = tested on: BT-549 breast
HOP-92 NSCLC = tested on: HOP-92 NSCLC
MCF7 breast = tested on: MCF7 breast
SK-MEL-5 melanoma = tested on: SK-MEL-5 melanoma
K-562 leukemia = tested on: K-562 leukemia
NCI/ADR-RES ovarian = tested on: NCI/ADR-RES ovarian
OVCAR-5 ovarian = tested on: OVCAR-5 ovarian
OVCAR-4 ovarian = tested on: OVCAR-4 ovarian
SNB-19 CNS = tested on: SNB-19 CNS
NCI-H522 lung = tested on: NCI-H522 lung
A498 renal = tested on: A498 renal
IGROV1 ovarian = tested on: IGROV1 ovarian

Cc1cn(C(=O)NC23CC4CC(CC(C4)C2)C3)c(=O)[nH]c1=O
TGI (OVCAR-8 ovarian): > 100 µM
TGI (HT29 colon): > 100 µM
TGI (MDA-MB-435): > 100 µM
TGI (SK-MEL-2 melanoma): 76.3 µM
TGI (UACC-62 melanoma): 71.4 µM
TGI (HOP-62 NSCLC): > 100 µM
TGI (NCI-H226 lung): 65.7 µM
TGI (ACHN renal): 94.1 µM
TGI (M14 melanoma): > 100 µM
TGI (DU-145 prostate): > 100 µM
TGI (EKVX NSCLC): 65.5 µM
TGI (CAKI-1 renal): > 100 µM
TGI (UACC-257 melanoma): > 100 µM
TGI (SF-539 CNS): > 100 µM
TGI (NCI-H23 lung): > 100 µM
TGI (KM12 colon): > 100 µM
TGI (MALME-3M melanoma): > 100 µM
TGI (SW-620 colon): > 100 µM
TGI (SF-295 CNS): > 100 µM
TGI (HCT-116 colon): > 100 µM
TGI (LOX IMVI melanoma): 83 µM
TGI (COLO 205 colon): 75.5 µM
TGI (PC-3 prostate): > 100 µM
TGI (RPMI-8226 leukemia): 75.1 µM
TGI (SF-268 CNS): > 100 µM
TGI (T-47D breast): > 100 µM
TGI (SK-MEL-28 melanoma): > 100 µM
TGI (HCC-2998 colon): > 100 µM
TGI (MOLT-4 leukemia): 89.1 µM
TGI (HL-60(TB) leukemia): 51.2 µM
TGI (U251 CNS): > 100 µM
TGI (MDA-N): > 100 µM
TGI (MDA-MB-231 breast): 61.3 µM
TGI (OVCAR-3 ovarian): > 100 µM
TGI (SK-OV-3 ovarian): > 100 µM
TGI (786-0 renal): > 100 µM
TGI (A549 NSCLC): > 100 µM
TGI (RXF 393 renal): > 100 µM
TGI (NCI-H460 lung): > 100 µM
TGI (HS 578T breast): > 100 µM
TGI (CCRF-CEM leukemia): 74.5 µM
TGI (HCT-15 colon): 80.3 µM
TGI (TK-10 renal): > 100 µM
TGI (SN12C renal): > 100 µM
TGI (SNB-75 CNS): > 100 µM
TGI (UO-31 renal): > 100 µM
TGI (BT-549 breast): 86.1 µM
TGI (HOP-92 NSCLC): > 100 µM
TGI (MCF7 breast): > 100 µM
TGI (SK-MEL-5 melanoma): > 100 µM
TGI (K-562 leukemia): > 100 µM
TGI (NCI/ADR-RES ovarian): 86.6 µM
TGI (OVCAR-5 ovarian): > 100 µM
TGI (OVCAR-4 ovarian): > 100 µM
TGI (SNB-19 CNS): > 100 µM

Cc1ccc2ccc(O)cc2c1
TGI (OVCAR-8 ovarian): 60.9 µM
TGI (HT29 colon): > 100 µM
TGI (MDA-MB-435): 46.8 µM
TGI (SK-MEL-2 melanoma): > 100 µM
TGI (UACC-62 melanoma): > 100 µM
TGI (HOP-62 NSCLC): > 100 µM
TGI (NCI-H226 lung): > 100 µM
TGI (ACHN renal): > 100 µM
TGI (M14 melanoma): > 100 µM
TGI (DU-145 prostate): > 100 µM
TGI (EKVX NSCLC): > 100 µM
TGI (CAKI-1 renal): > 100 µM
TGI (UACC-257 melanoma): > 100 µM
TGI (SF-539 CNS): > 100 µM
TGI (NCI-H23 lung): > 100 µM
TGI (KM12 colon): > 100 µM
TGI (MALME-3M melanoma): > 100 µM
TGI (SW-620 colon): > 100 µM
TGI (SF-295 CNS): > 100 µM
TGI (HCT-116 colon): > 100 µM
TGI (LOX IMVI melanoma): > 100 µM
TGI (COLO 205 colon): > 100 µM
TGI (PC-3 prostate): 52.9 µM
TGI (RPMI-8226 leukemia): 66.4 µM
TGI (SF-268 CNS): > 100 µM
TGI (T-47D breast): > 100 µM
TGI (SK-MEL-28 melanoma): > 100 µM
TGI (HCC-2998 colon): 46.8 µM
TGI (MOLT-4 leukemia): 55.9 µM
TGI (HL-60(TB) leukemia): 52.8 µM
TGI (NCI-H522 lung): 42.4 µM
TGI (U251 CNS): 48.8 µM
TGI (MDA-N): 42.6 µM
TGI (MDA-MB-231 breast): > 100 µM
TGI (OVCAR-3 ovarian): 28.7 µM
TGI (SK-OV-3 ovarian): > 100 µM
TGI (786-0 renal): > 100 µM
TGI (A549 NSCLC): > 100 µM
TGI (RXF 393 renal): > 100 µM
TGI (NCI-H460 lung): > 100 µM
TGI (HS 578T breast): > 100 µM
TGI (CCRF-CEM leukemia): 61.8 µM
TGI (HCT-15 colon): > 100 µM
TGI (TK-10 renal): > 100 µM
TGI (SN12C renal): > 100 µM
TGI (SNB-75 CNS): > 100 µM
TGI (UO-31 renal): 67.1 µM
TGI (BT-549 breast): 99.4 µM
TGI (HOP-92 NSCLC): 80.9 µM
TGI (MCF7 breast): > 100 µM
TGI (SK-MEL-5 melanoma): > 100 µM
TGI (A498 renal): > 100 µM
TGI (K-562 leukemia): 47.1 µM
TGI (NCI/ADR-RES ovarian): 60.4 µM
TGI (IGROV1 ovarian): 57.3 µM
TGI (OVCAR-5 ovarian): > 100 µM
TGI (OVCAR-4 ovarian): 52 µM
TGI (SNB-19 CNS): > 100 µM
